Assay [1] deals with acute lung injury in mice induced by oleic acid. Briefly: acute lung injury test in mouse (oleic acid-induced, histological grading of lung pathology). Type of assay: in vivo, KM mice. The settings on record: for protective effect against acute lung injury in mice induced by oleic acid: compared with the model control group (P<0.05 or P<0.01), 40 mg/kg free base i.v.; for Overall lung pathology score: group sum, weighted (alveolar wall thickening x 1, inflammatory cell infiltration x 1, lung tissue necrosis x 3), 40 mg/kg free base i.v. once a day for 4 times, model control 81, normal control 21; for Alveolar wall thickening Level 0 / Inflammatory cell infiltration Level 0 / Lung tissue necrosis Level 0: number of mice (11 per group) at score 0 (No pathological change); for Alveolar wall thickening Level 0 / Inflammatory cell infiltration Level 0 / Lung tissue necrosis Level 0 / Alveolar wall thickening Level 1 / Inflammatory cell infiltration Level 1 / Lung tissue necrosis Level 1 / Alveolar wall thickening Level 2 / Inflammatory cell infiltration Level 2 / Lung tissue necrosis Level 2 / Alveolar wall thickening Level 3 / Inflammatory cell infiltration Level 3 / Lung tissue necrosis Level 3 / Alveolar wall thickening Level 4 / Inflammatory cell infiltration Level 4 / Lung tissue necrosis Level 4: 40 mg/kg in terms of free base, intravenously once a day for 4 times, oleic acid 300 mg/kg i.v.; for Alveolar wall thickening Level 1 / Inflammatory cell infiltration Level 1 / Lung tissue necrosis Level 1: number of mice (11 per group) at score 1 (Occasional); for Alveolar wall thickening Level 2 / Inflammatory cell infiltration Level 2 / Lung tissue necrosis Level 2: number of mice (11 per group) at score 2 (Mild); for Alveolar wall thickening Level 3 / Inflammatory cell infiltration Level 3 / Lung tissue necrosis Level 3: number of mice (11 per group) at score 3 (Moderate); for Alveolar wall thickening Level 4 / Inflammatory cell infiltration Level 4 / Lung tissue necrosis Level 4: number of mice (11 per group) at score 4 (Severe). How it is done: KM mice, weighing 18-22g, with all 66 being males, were used and randomly grouped into a normal control group, a model control group, a Formula I compound group (40 mg/kg, in terms of free base), a Formula V compound group (40 mg/kg, in terms of free base), a Comparative Example group (40 mg/kg, in terms of free base), and an ambroxol hydrochloride group (40 mg/kg, in terms of free base), 11 animals in each group, and each group was administered intravenously (dissolved in normal saline by adjusting pH or directly dissolved in normal saline) once a day for 4 times, while the model control group and the normal control group were given an equivalent amount of normal saline. 30 minutes after the last administration, except for the normal control group, all other mice were administered 300 mg/kg oleic acid intravenously (prepared into the desired concentration with sterile saline containing 0.1% […] immediately before use), and the vehicle control group was given an equivalent volume of 0.1% BSA saline. The mice were sacrificed 4 hours after the last administration, and the right lobes of the lungs were removed and fixed in a 10% formaldehyde solution. After dehydration, embedding in paraffin, dissection, and staining with HE, they were observed under a microscope for pathological changes of the lung tissues. Here, the medicament used for the Comparative Example group was the 4-[(2-amino-3,5-dibromobenzyl)amino]adamantan-1-ol hydrochloride (racemic) prepared in Comparative Example 1. Table 1. Criteria for histological grading of lung injury
The above indicators are multiplied by different weighting numbers depending on the significance of the pathology (alveolar wall thickening × 1, inflammatory cell infiltration × 1, lung tissue necrosis × 3), and finally added up to obtain an overall lung pathology score. Table 2. Test results of lung pathologies of each group

The test system of assay [2] is ammonia-induced coughing response in mice. Briefly: cough response of mice induced by ammonia water. Type of assay: in vivo, KM mice. The settings on record: for reduction of the number of coughs: compared with the model control group (P<0.05 or P<0.01), 15 mg/kg free base i.v.; for Number of coughs (times): within 3 minutes after concentrated ammonia, 15 mg/kg in terms of free base i.v., 30 minutes after administration, x ± s, n=10, model control 41.7±8.76. How it is done:
50 KM mice, weighing 18-22g, of both sexes were used and randomly divided into 5 groups, a model control group, a Formula I compound group (15 mg/kg, in terms of free base), a Formula V compound group (15 mg/kg, in terms of free base), a Comparative Example group (15 mg/kg, in terms of free base), and an ambroxol hydrochloride group (15 mg/kg, in terms of free base), 10 animals in each group, and were administered intravenously (dissolved in normal saline by adjusting pH or directly dissolved in normal saline). 30 minutes after the administration, the mice were put in an inverted beaker with a volume of 500ml and a cotton ball inside. Timing was started once 0.2ml of concentrated ammonia/mouse was added onto the cotton ball. The number of coughs of each animal within 3 minutes was observed and recorded. Here, the medicament used for the Comparative Example group was the 4-[(2-amino-3,5-dibromobenzyl)amino]adamantan-1-ol hydrochloride (racemic) prepared in Comparative Example 1. Table 3. Effect on ammonia-induced coughing response in mice (x ± s, n=10)

The subject of assay [3] is expectoration amount by rat capillary tube expectoration. Briefly: rat capillary sputum excretion test. Format: in vivo, SD rats. As to conditions: length of liquid in capillary tube within 90 minutes, 15 mg/kg in terms of free base via tail vein, 30 minutes after administration, n=10, vehicle control 22.7±4.41. As to the method: 180-220g SD rats of both sexes were used and divided into random groups, with 10 rats in each group, namely a vehicle control group, a Formula I compound group (15 mg/kg, in terms of free base), a Formula V compound group (15 mg/kg, in terms of free base), a Comparative Example group (15 mg/kg, in terms of free base) and ambroxol hydrochloride (15 mg/kg, in terms of free base). The rats were fasted and restrained from water for 12 hours before testing the amount of sputum excretion, and administered the respective medicaments via the tail vein (dissolved in normal saline by adjusting pH or directly dissolved in normal saline). 30 minutes after the administration, they were anesthetized by intraperitoneally injecting 1g/kg of a urethane solution in saline, fixed in supine position, and the trachea was separated after cutting through neck skin. A small hole was pierced by using a syringe needle between the two cartilage rings on the lower edge of the thyroid cartilage, and a capillary tube (with an inner diameter of 0.8mm, and a length of 10cm) was inserted centripetally into the trachea. Sputum was collected while adjusting the angle between the capillary tube and the trachea, and the total number of the length of liquids in the capillary tube (mm) was used to evaluate the expectoration effect. The amount of expectoration of the rats within 90 minutes was recorded. Here, the medicament used for the Comparative Example group was the 4-[(2-amino-3,5-dibromobenzyl)amino]adamantan-1-ol hydrochloride (racemic) prepared in Comparative Example 1. Table 4. Results of the effect on the expectoration amount by rat capillary tube expectoration

The subject of assay [4] is tracheal phenol red secretion in mice. Briefly: phenol red expectoration test in mice. Type of assay: in vivo. The settings on record: colorimetric measurement at 546nm; 30 mg/kg in terms of free base via tail vein 2 times in a row; x ± s, n=12; control 0.095±0.022. As to the method: Experimental method: 60 mice of both sexes were used and randomly divided into a control (normal saline) group, a Formula I compound group (30 mg/kg, in terms of free base), a Formula V compound group (30 mg/kg, in terms of free base), a Comparative Example group (30 mg/kg, in terms of free base) and ambroxol hydrochloride (30 mg/kg, in terms of free base), 12 rats in each group; the respective medicaments were administered via the tail vein (dissolved in normal saline by adjusting pH or directly dissolved in normal saline) 2 times in a row. 15 minutes after the last administration to the mice, a 5% phenol red solution in normal saline (0.5g/kg) was subcutaneously injected. After 30 minutes, the mice were sacrificed and a section of the trachea was cut from below the thyroid cartilage to the trachea branch. The section was placed in a test tube containing 1 mL of normal saline, shaken and soaked for 30 minutes, and then centrifuged for 10 minutes (3000 r/min). The supernatant was transferred to another test tube, 0.1 mL of 1M NaOH solution was added, and shaken uniformly for a colorimetric measurement at 546nm. The effects of each group on the tracheal phenol red secretion in mice were statistically compared, and the experimental results obtained are shown in Table 5 below. Here, the medicament used for the Comparative Example group was the 4-[(2-amino-3,5-dibromobenzyl)amino]adamantan-1-ol hydrochloride (racemic) prepared in Comparative Example 1. Table 5. Effects on tracheal phenol red secretion in mice (x ± s)

Where a name gives a salt, the structure may show the parent alone. Marks after values point to notes of the source that are not given here.

As to `Cl.Nc1c(Br)cc(Br)cc1CNC1C2CC3CC1CC(O)(C3)C2` (racemic) [Compound of Comparative Example, 4-[(2-amino-3,5-dibromobenzyl)amino]adamantan-1-ol hydrochloride (racemic)], in assay [1], the “protective effect against acute lung injury in mice induced by oleic acid” value was “definite protective effect”, the “Overall lung pathology score” value is listed as 44*, the “Alveolar wall thickening Level 0” value came out at 1 and the “Inflammatory cell infiltration Level 0” value was determined as 1. Also, in assay [1], the “Lung tissue necrosis Level 0” value is 8, the “Alveolar wall thickening Level 1” value was 2, the “Inflammatory cell infiltration Level 1” value came to 6 and the “Lung tissue necrosis Level 1” value worked out at 2. Moreover, in assay [1], the “Alveolar wall thickening Level 2” value worked out at 8, the “Inflammatory cell infiltration Level 2” value was found to be 4, the “Lung tissue necrosis Level 2” value turned out to be 1 and the “Alveolar wall thickening Level 3” value is on record as 0. Also, in assay [1], the “Inflammatory cell infiltration Level 3” value came to 0, the “Lung tissue necrosis Level 3” value worked out at 0, the “Alveolar wall thickening Level 4” value was found to be 0 and the “Inflammatory cell infiltration Level 4” value is 0. In addition, the “Lung tissue necrosis Level 4” value in assay [1] is 0. In assay [2], the “reduction of the number of coughs” value was “significantly reduce the number of coughs” and the “Number of coughs (times)” value amounted to 25.7±6.40 times. Further, the “Expectoration amount in 90min (mm)” value in assay [3] was found to be 39.9±5.43 mm. Moreover, the “Phenol red secretion (OD number)” value in assay [4] worked out at 0.223±0.058 OD number.

Take `Nc1c(Br)cc(Br)cc1CN[C@H]1CC[C@H](O)CC1` [Ambroxol hydrochloride]: in assay [1], the “Overall lung pathology score” value is recorded as 54, the “Alveolar wall thickening Level 0” value stood at 2, the “Inflammatory cell infiltration Level 0” value is given as 0 and the “Lung tissue necrosis Level 0” value was 6. Also, in assay [1], the “Alveolar wall thickening Level 1” value was 4, the “Inflammatory cell infiltration Level 1” value was found to be 4, the “Lung tissue necrosis Level 1” value was determined as 4 and the “Alveolar wall thickening Level 2” value is 4. Further, in assay [1], the “Inflammatory cell infiltration Level 2” value is on record as 7, the “Lung tissue necrosis Level 2” value is on record as 0, the “Alveolar wall thickening Level 3” value is 1 and the “Inflammatory cell infiltration Level 3” value is 0. For the same compound, in assay [1], the “Lung tissue necrosis Level 3” value is recorded as 1, the “Alveolar wall thickening Level 4” value is on record as 0, the “Inflammatory cell infiltration Level 4” value is listed as 0 and the “Lung tissue necrosis Level 4” value came to 0. Further, in assay [2], the “reduction of the number of coughs” value is “significantly reduce the number of coughs” and the “Number of coughs (times)” value was determined as 32.7±8.55 times. Moreover, the “Expectoration amount in 90min (mm)” value in assay [3] is given as 30.1±4.95 mm. In assay [4], the “Phenol red secretion (OD number)” value is 0.135±0.023 OD number.

As to `Nc1c(Br)cc(Br)cc1CN[C@@H]1[C@@H]2C[C@@H]3C[C@H]1C[C@@](O)(C3)C2` [Compound of Formula I, trans-4-[(2-amino-3,5-dibromobenzyl)amino]adamantan-1-ol], in assay [1], the “protective effect against acute lung injury in mice induced by oleic acid” value is given as “definite protective effect”, the “Alveolar wall thickening Level 0” value was 1, the “Inflammatory cell infiltration Level 0” value is 3 and the “Lung tissue necrosis Level 0” value came out at 11. In addition, in assay [1], the “Alveolar wall thickening Level 1” value was 7, the “Inflammatory cell infiltration Level 1” value was determined as 7, the “Lung tissue necrosis Level 1” value is listed as 0 and the “Alveolar wall thickening Level 2” value is on record as 3. In assay [1], the “Inflammatory cell infiltration Level 2” value was found to be 1, the “Lung tissue necrosis Level 2” value amounted to 0, the “Alveolar wall thickening Level 3” value is 1 and the “Inflammatory cell infiltration Level 3” value is 0. Moreover, in assay [1], the “Lung tissue necrosis Level 3” value worked out at 0, the “Alveolar wall thickening Level 4” value came to 0, the “Inflammatory cell infiltration Level 4” value is recorded as 0 and the “Lung tissue necrosis Level 4” value is on record as 0. For the same compound, the “Overall lung pathology score” value in assay [1] (40 mg/kg) was 23^**▲. Also, the “reduction of the number of coughs” value in assay [2] is recorded as “significantly reduce the number of coughs”. Also, the “Number of coughs (times)” value in assay [2] (15 mg/kg) stood at 19.2±5.98 times. For the same compound, the “Expectoration amount in 90min (mm)” value in assay [3] (15 mg/kg) came to 45.9±6.79 mm. In addition, in assay [4], the “Phenol red secretion (OD number)” value is on record as 0.279±0.063 OD number.

The values above are taken from patent EP4310070A1, “USE OF TRANS AMANTADINE DERIVATIVE OR SALT THEREOF” (Chengdu Shibeikang Biomedical Technology Co., Ltd., priority 2021, dated 2022).
